One assay has as its target T1, P70S6K (T412E mutant) (Homo sapiens, UniProt P23443, T412E).
T1 construct: purchased Millipore
The experiment in a line: p70S6K Enzyme Assay. The format is biochemical. As to conditions: 24 μM ATP, 90 min at 25° C., Caliper mobility shift. How it is done:
p70S6K inhibitor compounds were diluted and plated in 96 well plates. A reaction mixture including the following components were then added to the compound plate to initiate the enzyme reaction; P70S6K (3 nM, T412E mutant, Millipore) was mixed with 24 μM ATP in an assay buffer containing 100 mM Hepes (pH 7.5), 5 mM MgCl2, 1 mM DTT, 0.015% Brij and 1 μM of the substrate peptide FITC-AHA-AKRRRLSSLRA-OH (derived from the S6 ribosomal protein sequence, FITC=fluorescein isothiocyanate, AHA=6-aminohexanoic acid). The reaction was incubated for 90 min at 25° C., before the addition of 10 mM EDTA to stop the reaction. The proportion of substrate and product (phosphorylated) peptide was analysed on a Caliper Life Sciences Lab Chip 3000, using a pressure of −1.4 psi, and upstream and downstream voltages of −3000 and −700 respectively. Product peaks were resolved before substrate peaks on the resulting chromatograms.
To assess the inhibitory potential of the compounds, IC50-values were determined, as shown in Chemical Synthesis section above.

A further assay deals with pS6 MDA-MB-468. Description: Cellular Activity Assay (phospho-S6 in MDA-MB-468 cells). Type of assay: cell-based. As to conditions: Homo sapiens, 2 hr compound incubation, percent pS6-positive cells. How it is done: MDA-MB-468 cells were grown in DMEM containing glutamine supplemented with 10% Fetal Bovine Serum (FBS) and 1× antibiotics. Cells were maintained by splitting 1:3 twice a week.
For the assay, cells were plated the evening before at a density of 4000 cells per well in black polyD lysine coated 384 well plates. Cells were incubated overnight (16 to 20 hours) in growth media. Compounds at an appropriate concentration were added to the wells and incubated for 2 hr. Controls included: i) no primary, ii) rabbit isotype, iii) propidium iodide (red) only and iv) anti-phospho-S6 antibody alone (green only). Cells were then fixed in 4% paraformaldehyde for 15-20 minutes at room temperature, then washed 3×80 ul with PBS.
50 ul 10% normal goat serum (NGS) with 0.2% triton X 100 in PBS were added and incubated for 30 to 60 minutes at room temperature. Anti-phospho-S6 antibody was diluted 1:800 2% with NGS in 0.2% TritonX-100 and 30 ul added to appropriate wells. The wells were incubated overnight at 4 degrees Celsius.
Then the wells were washed with 3×80 uL PBS. The secondary green fluorescence labeled antibody (Alexa Fluor® 488 F(ab′)2 fragment goat Anti-rabbit IgG (H+L)), was diluted 1:1500 in 2% NGS with 0.2% TritonX-100, and 30 ul were added to the appropriate wells which were then incubated in the dark at room temperature for 60 minutes. Then they were washed with 4×80 ul PBS. Propidium iodide (1.5 mM stock) was diluted 1:1000 in PBS, and 50 ul were added to the appropriate wells and incubated for 30 minutes at room temperature in the dark. Propidium iodide was not washed out. Plates were read on the Acumen Explorer.
Red and green cell populations were determined using controls. The number of green cells (pS6) and total number of cells (red) were then counted and the percentage of green cells was calculated. Percent positive cell data was plotted on a log scale against concentration of compounds and IC50 values were calculated from dose response curves.

The target in the next assay is T2, Akt1 (Homo sapiens, UniProt P31749).
T2 construct: 0.1 ng/ul His-AKT (Full Length), (Invitrogen, Part #P2999, Lot #641228C); His; purchased Invitrogen P2999
The experiment in a line: AKT/PKB Kinase Assay. Type of assay: biochemical. As to conditions: His-AKT (Full Length), 160 uM ATP, 90 min at 25 C. As to the method:
In order to measure AKT inhibition in the Caliper Life Sciences LC3000, a TTP Mosquito liquid handling instrument was used to place 125 nl of the appropriate concentration of inhibitor in 100% DMSO (for a dose response curve calculation) into each well of a 384-well plate. To this reaction components were added to a final volume of 12.5 ul: • 0.1 ng/ul His-AKT (Full Length), (Invitrogen, Part #P2999, Lot #641228C) • 160 uM ATP (Fluke, 02055) • 1 mM DTT (Sigma, D0632) • 1 mM MgCl2 (Sigma, M1028) • 1 uM substrate peptide (sequence FITC-AHA-GRPRTSSFAEG-NH2), synthesized by Tufts Peptide Synthesis service. • 100 mM HEPES pH 7.5 (Calbiochem, 391338) • 0.015% Brij-35 (Sigma, B4184)
(§1) The reaction was incubated for 90 min at 25 C, and then stopped by the addition of 70 ul of Stop buffer (100 mM HEPES pH 7.5, 0.015% Brij-35, 10 mM EDTA (Sigma, E7889)).
The plate was read on a Caliper LC 3000 in an Off-Chip mobility shift assay format, using the following parameters for a 12-sipper chip: screening pressure −2.3 psi, upstream voltage −500, and downstream voltage −3000.
These conditions cause unphosphorylated substrate and phosphorylated product peptide to resolve as separate peaks allowing direct measurement of percentage of conversion of substrate to product. The percent conversion was plotted against concentration of inhibitor to produce a sigmoidal dose response curve, from which an IC50 was calculated.

A further assay has as its target T3, Aurora B (Homo sapiens, UniProt Q96GD4).
T3 construct: GST-Aurora B (1-344 amino acids); GST (N); purchased Carna Biosciences 05-102
Description: Aurora B Kinase Assay. The format is biochemical. As to conditions: for IC50: GST-Aurora B (1-344), 10 uM ATP, 90 min at 25 C. As to the method:
To measure inhibitor activity of Aurora B inhibitors in the Caliper Life Sciences LC3000, a TTP Mosquito liquid handling instrument was used to place 0.25 ul of the appropriate concentration of inhibitor in 100% DMSO (for a dose response curve calculation) into each well of a 384-well plate. To this reaction components was added to a final volume of 25 ul: • 0.1 ng/ul GST-Aurora B (1-344 amino acids), (Carna Biosciences 05-102. N-terminal GST fusion with His tagged INCEP, accession number Q96GD4). • 10 uM ATP (Fluka, 02055) • 1 mM DTT (Sigma, D0632) • 1 mM MgCl2 (Sigma, M1028) • 1 uM substrate peptide (sequence FITC-LRRASLG-(CONH2), synthesized by Tufts Peptide Synthesis service. • 100 mM HEPES pH 7.5 (Calbiochem, 391338) • 0.015% Brij-35 (Sigma, B4184)
as §1
The plate was read on a Caliper LC 3000 in an Off-Chip mobility shift assay format, using the following parameters for a 12-sipper chip: screening pressure −1.8 psi, upstream voltage −2700, downstream voltage −1000. These conditions caused unphosphorylated substrate and phosphorylated product peptide to resolve as separate peaks allowing direct measurement of percentage of conversion of substrate to product. The percent conversion was plotted against concentration of inhibitor to produce a sigmoidal dose response curve, from which an IC50 was calculated using XLFit for Microsoft Excel.

T2 sequence (P31749 whole entry): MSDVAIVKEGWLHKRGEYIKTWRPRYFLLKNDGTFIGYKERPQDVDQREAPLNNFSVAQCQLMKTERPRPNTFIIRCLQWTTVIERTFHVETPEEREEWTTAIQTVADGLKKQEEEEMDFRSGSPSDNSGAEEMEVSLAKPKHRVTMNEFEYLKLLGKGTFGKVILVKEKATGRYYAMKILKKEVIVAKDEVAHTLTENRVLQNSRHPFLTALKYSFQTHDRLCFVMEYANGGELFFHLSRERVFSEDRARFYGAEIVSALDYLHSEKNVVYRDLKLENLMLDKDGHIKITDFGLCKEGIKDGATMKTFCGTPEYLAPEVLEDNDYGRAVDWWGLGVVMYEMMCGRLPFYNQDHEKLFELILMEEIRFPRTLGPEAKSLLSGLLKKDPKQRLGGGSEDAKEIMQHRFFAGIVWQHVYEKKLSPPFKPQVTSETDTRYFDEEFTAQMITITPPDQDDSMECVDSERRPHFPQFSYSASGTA
T1 sequence (P23443 1-421 T412E limits assumed): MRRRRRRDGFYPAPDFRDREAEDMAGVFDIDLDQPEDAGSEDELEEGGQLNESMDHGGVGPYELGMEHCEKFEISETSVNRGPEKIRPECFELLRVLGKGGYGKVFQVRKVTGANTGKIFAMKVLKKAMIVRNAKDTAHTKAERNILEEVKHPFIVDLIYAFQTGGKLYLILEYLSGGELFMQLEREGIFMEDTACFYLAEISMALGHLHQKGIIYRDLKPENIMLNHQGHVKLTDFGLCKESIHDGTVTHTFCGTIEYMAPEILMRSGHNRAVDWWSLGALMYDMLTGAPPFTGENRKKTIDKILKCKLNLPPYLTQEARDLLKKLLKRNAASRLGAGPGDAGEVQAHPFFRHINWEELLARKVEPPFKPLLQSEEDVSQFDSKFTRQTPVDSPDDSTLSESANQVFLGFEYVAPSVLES
T3 sequence (Q96GD4 whole entry, the tested form may be a part): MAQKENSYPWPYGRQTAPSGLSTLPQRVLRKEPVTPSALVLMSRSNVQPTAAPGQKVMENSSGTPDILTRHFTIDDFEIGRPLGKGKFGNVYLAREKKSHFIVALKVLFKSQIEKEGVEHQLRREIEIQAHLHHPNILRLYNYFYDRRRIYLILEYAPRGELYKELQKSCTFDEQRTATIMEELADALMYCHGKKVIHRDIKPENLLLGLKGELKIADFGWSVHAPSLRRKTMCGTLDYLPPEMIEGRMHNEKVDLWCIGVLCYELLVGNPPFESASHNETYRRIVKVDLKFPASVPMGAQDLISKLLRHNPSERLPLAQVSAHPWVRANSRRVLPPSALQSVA
T3 sequence (Q9NQS7 803-918 partner limits assumed): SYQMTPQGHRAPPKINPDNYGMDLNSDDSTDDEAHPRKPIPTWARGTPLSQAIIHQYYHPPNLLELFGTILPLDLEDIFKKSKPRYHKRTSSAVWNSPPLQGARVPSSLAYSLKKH

As to `NC(=O)c1cccc2c(N[C@H](CN3CCC3)c3cccc(F)c3)ncnc12` [Example 1, 4-[(S)-2-Azetidin-1-yl-1-(3-fluorophenyl)-ethylamino]-quinazoline-8-carboxylic acid amide], the IC50 on P70S6K (T412E mutant) is 5.6 nM; in the assay on pS6 MDA-MB-468, 0.07 µM; at Akt1, 22 nM; on Aurora B, 45 nM. Further, the “Aurora B/p70S6K inhibitory ratio” value on Aurora B (ratio of Aurora B to p70S6K inhibition) is 28.
Consider `NC(=O)c1cccc2c(N[C@H](CN3CCC3)c3cccc(Cl)c3)ncnc12` [Example 2, 4-[(S)-2-Azetidin-1-yl-1-(3-chlorophenyl)-ethylamino]-quinazoline-8-carboxylic acid amide], for which the IC50 at P70S6K (T412E mutant) was determined as 1.1 nM; in the assay with pS6 MDA-MB-468, 0.016 µM; on Akt1 it was 10 nM; at Aurora B, 47 nM.
The corresponding values for `NC(=O)c1cccc2c(N[C@H](CN3CCC3)c3ccc(F)cc3)ncnc12` [Example 3, 4-[(S)-2-Azetidin-1-yl-1-(4-fluorophenyl)-ethylamino]-quinazoline-8-carboxylic acid amide] are 7.8 nM, 0.103 µM, 23 nM and 41 nM.
The corresponding values for `NC(=O)c1cccc2c(N[C@H](CN3CCC3)c3ccc(F)c(F)c3)ncnc12` [Example 4, 4-[(S)-2-Azetidin-1-yl-1-(3,4-difluorophenyl)-ethylamino]-quinazoline-8-carboxylic acid amide] are 1.2 nM, 0.074 µM, 4.1 nM and 56 nM.
`NC(=O)c1cccc2c(N[C@H](CN3CCC3)c3ccccc3)ncnc12` [Example 21, 4-[(S)-2-Azetidin-1-yl-1-phenyl-ethylamino]-quinazoline-8-carboxylic acid amide]: the IC50 is 11 nM at P70S6K (T412E mutant) and 3.1 µM with pS6 MDA-MB-468.
As for `NC(=O)c1cccc2c(N[C@H](CN3CC(F)C3)c3cccc(Cl)c3)ncnc12` [Example 22, 4-[(S)-2-(3-Fluoro-azetidin-1-yl)-1-(3-chlorophenyl)-ethylamino]-quinazoline-8-carboxylic acid amide], the IC50 at P70S6K (T412E mutant) is 2.4 nM; with pS6 MDA-MB-468 it was 0.324 µM; on Akt1, 72 nM.
For `NC(=O)c1cccc2c(N[C@H](CN3CCC3)c3ccc(OC(F)(F)F)c(Cl)c3)ncnc12` [Example 28, 4-[(S)-2-Azetidin-1-yl-1-(3-chloro-4-trifluoromethoxy-phenyl)-ethylamino]-quinazoline-8-carboxylic acid amide], the IC50 on P70S6K (T412E mutant) amounted to 2.4 nM; with pS6 MDA-MB-468 it was 0.061 µM; on Aurora B, 690 nM.
As to `NC(=O)c1cccc2c(N[C@H](CN3CCC3)c3ccc(Cl)c(F)c3)ncnc12` [Example 29, 4-[(S)-2-Azetidin-1-yl-1-(4-chloro-3-fluoro-phenyl)-ethylamino]-quinazoline-8-carboxylic acid amide], the IC50 on P70S6K (T412E mutant) is 1.6 nM; in the assay on pS6 MDA-MB-468, 0.019 µM; against Akt1 it was 7.7 nM.
For `NC(=O)c1cccc2c(N[C@H](CN3CC(F)(F)C3)c3ccc(Cl)cc3)ncnc12` [Example 32, 4-[(S)-1-(4-Chloro-phenyl)-2-(3,3-difluoro-azetidin-1-yl)-ethylamino]-quinazoline-8-carboxylic acid amide], the IC50 at P70S6K (T412E mutant) was 42 nM; with pS6 MDA-MB-468, above 0.01 µM; against Aurora B, 340 nM.
On to `NC(=O)c1cccc2c(N[C@H](CN3CC(O)C3)c3ccc(F)c(F)c3)ncnc12` [Example 33, 4-[(S)-1-(3,4-Difluoro-phenyl)-2-(3-hydroxy-azetidin-1-yl)-ethylamino]-quinazoline-8-carboxylic acid amide], for which the IC50 at P70S6K (T412E mutant) was determined as 4.6 nM; on Aurora B, 210 nM.
For the molecule `CC(C)c1ccc([C@@H](CN2CCC2)Nc2ncnc3c(C(N)=O)cccc23)cc1` [Example 34, 4-[(S)-2-Azetidin-1-yl-1-(4-isopropylphenyl)-ethylamino]-quinazoline-8-carboxylic acid amide], the IC50 was 0.8 nM at P70S6K (T412E mutant) and 0.063 µM in the assay with pS6 MDA-MB-468.
In the same order, the values of `NC(=O)c1ccc([C@@H](CN2CCC2)Nc2ncnc3c(C(N)=O)cccc23)cc1` [Example 35, 4-[(S)-2-Azetidin-1-yl-1-(4-carbamoylphenyl)-ethylamino]-quinazoline-8-carboxylic acid amide] are 8.6 nM and 0.577 µM.
Take `CC(C)Oc1ccc([C@@H](CN2CCC2)Nc2ncnc3c(C(N)=O)cccc23)cc1` [Example 36, 4-[(S)-2-Azetidin-1-yl-1-(4-isopropoxyphenyl)-ethylamino]-quinazoline-8-carboxylic acid amide]: the IC50 at P70S6K (T412E mutant) is 400 nM; in the assay with pS6 MDA-MB-468 (head printed in uM), above 10 µM.
Turning to `COc1cc([C@@H](CN2CCC2)Nc2ncnc3c(C(N)=O)cccc23)cc(F)c1F` [Example 40, 4-[(S)-2-Azetidin-1-yl-1-(3,4-difluoro-5-methoxyphenyl)-ethylamino]-quinazoline-8-carboxylic acid amide], the IC50 on P70S6K (T412E mutant) was 130 nM; in the assay with pS6 MDA-MB-468 (head printed in uM), above 10 µM; on Aurora B, above 1 nM.
As to `NC(=O)c1cc(F)cc2c(N[C@H](CN3CCC3)c3ccc(Cl)c(F)c3)ncnc12` [Example 51, 4-[(S)-2-Azetidin-1-yl-1-(4-chloro-3-fluoro-phenyl)-ethylamino]-6-fluoro-quinazoline-8-carboxylic acid amide], the IC50 is 1 nM at P70S6K (T412E mutant), 0.064 µM in the assay with pS6 MDA-MB-468 and 54 nM against Aurora B.

As usually defined, the IC50 is the midpoint of a concentration-inhibition curve.

These data come from patent US8946247B2, “Quinazoline carboxamide azetidines” (Merck Patent GmbH, priority 2010, dated 2015).
